{"source": "ChEMBL document CHEMBL1201862", "about": "“PubChem BioAssay data set” (2004)", "assay_type_in_all_cases": "functional", "key": {"[1]": {"molecular_target": "Ribosomal protein S6 kinase alpha-3 (Homo sapiens, UniProt P51812)"}, "[2]": {"molecular_target": "Tyrosine-protein kinase JAK2 (Homo sapiens, UniProt O60674)", "sequence (O60674 whole entry)": "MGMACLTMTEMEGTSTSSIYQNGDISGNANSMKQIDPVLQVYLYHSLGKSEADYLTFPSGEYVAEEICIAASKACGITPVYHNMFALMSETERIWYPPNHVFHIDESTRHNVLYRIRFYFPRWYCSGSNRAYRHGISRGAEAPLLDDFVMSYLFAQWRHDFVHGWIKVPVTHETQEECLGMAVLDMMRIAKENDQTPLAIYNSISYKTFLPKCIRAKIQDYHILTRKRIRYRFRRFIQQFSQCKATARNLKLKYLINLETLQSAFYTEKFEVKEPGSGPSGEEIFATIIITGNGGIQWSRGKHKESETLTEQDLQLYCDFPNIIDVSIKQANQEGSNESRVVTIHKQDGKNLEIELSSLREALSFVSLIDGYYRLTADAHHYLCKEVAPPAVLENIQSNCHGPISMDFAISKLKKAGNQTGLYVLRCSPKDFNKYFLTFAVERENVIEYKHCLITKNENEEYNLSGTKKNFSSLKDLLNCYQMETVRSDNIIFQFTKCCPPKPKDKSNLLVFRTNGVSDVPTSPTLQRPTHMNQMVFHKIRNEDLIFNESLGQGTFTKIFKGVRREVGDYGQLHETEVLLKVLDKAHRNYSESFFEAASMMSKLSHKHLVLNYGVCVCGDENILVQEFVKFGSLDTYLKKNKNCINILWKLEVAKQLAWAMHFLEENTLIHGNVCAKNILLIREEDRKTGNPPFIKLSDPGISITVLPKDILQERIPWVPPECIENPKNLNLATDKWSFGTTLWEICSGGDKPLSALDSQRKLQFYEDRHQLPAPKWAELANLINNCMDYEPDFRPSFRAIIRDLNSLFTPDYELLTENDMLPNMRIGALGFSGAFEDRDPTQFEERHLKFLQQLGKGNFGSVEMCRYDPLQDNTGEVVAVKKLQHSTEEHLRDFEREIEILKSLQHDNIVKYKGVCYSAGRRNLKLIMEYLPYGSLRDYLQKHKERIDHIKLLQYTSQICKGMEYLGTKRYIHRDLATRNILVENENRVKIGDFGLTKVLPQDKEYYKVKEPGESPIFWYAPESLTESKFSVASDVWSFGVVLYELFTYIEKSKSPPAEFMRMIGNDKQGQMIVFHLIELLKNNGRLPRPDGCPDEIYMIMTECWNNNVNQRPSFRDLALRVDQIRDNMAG"}, "[3]": {"molecular_target": "Serine/threonine-protein kinase TBK1 (Homo sapiens, UniProt Q9UHD2)", "experiment": "Navigating the Kinome. Panel member name: TBK1"}, "[4]": {"molecular_target": "Tyrosine-protein kinase Lck (Homo sapiens, UniProt P06239)"}, "[5]": {"molecular_target": "Serine/threonine-protein kinase pim-1 (Homo sapiens, UniProt P11309)"}, "[6]": {"molecular_target": "Serine/threonine-protein kinase PAK 4 (Homo sapiens, UniProt O96013)"}, "[7]": {"molecular_target": "Fibroblast growth factor receptor 1 (Homo sapiens, UniProt P11362)"}, "[8]": {"molecular_target": "Casein kinase I isoform alpha (Homo sapiens, UniProt P48729)"}, "[9]": {"molecular_target": "Mitogen-activated protein kinase kinase kinase kinase 2 (Homo sapiens, UniProt Q12851)", "sequence (Q12851 whole entry)": "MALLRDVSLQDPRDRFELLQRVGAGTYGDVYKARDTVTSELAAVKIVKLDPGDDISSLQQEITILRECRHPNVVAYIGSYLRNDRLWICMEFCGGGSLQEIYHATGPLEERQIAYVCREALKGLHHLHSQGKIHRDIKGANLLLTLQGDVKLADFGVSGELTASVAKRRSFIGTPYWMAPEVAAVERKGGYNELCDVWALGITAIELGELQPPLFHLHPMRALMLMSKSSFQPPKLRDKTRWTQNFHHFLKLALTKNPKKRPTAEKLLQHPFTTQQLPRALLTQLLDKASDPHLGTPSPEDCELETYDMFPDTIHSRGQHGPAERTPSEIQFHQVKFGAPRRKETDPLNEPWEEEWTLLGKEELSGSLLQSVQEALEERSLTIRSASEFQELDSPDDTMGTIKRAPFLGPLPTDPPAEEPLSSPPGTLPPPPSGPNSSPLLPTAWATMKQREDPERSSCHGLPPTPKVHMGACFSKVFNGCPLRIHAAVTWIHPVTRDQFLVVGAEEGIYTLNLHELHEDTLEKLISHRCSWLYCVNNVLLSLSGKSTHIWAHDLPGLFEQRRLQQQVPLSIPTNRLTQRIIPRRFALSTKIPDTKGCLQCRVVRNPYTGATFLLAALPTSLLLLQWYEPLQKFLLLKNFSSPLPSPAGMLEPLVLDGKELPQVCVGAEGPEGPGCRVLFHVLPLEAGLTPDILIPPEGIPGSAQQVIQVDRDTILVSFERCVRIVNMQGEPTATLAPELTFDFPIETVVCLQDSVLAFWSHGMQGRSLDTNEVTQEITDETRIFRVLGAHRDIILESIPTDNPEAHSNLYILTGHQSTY"}, "[10]": {"molecular_target": "Hepatocyte growth factor receptor (Homo sapiens, UniProt P08581)"}, "[11]": {"molecular_target": "Dual specificity tyrosine-phosphorylation-regulated kinase 1B (Homo sapiens, UniProt Q9Y463)", "experiment": "Navigating the Kinome. Panel member name: DYRK1B"}, "Focal adhesion kinase 1": {"molecular_target": "Focal adhesion kinase 1 (Homo sapiens, UniProt Q05397)"}, "[12]": {"molecular_target": "Platelet-derived growth factor receptor alpha (Homo sapiens, UniProt P16234)", "experiment": "Navigating the Kinome. Panel member name: PDGFRA"}, "[13]": {"molecular_target": "Tyrosine-protein kinase Fyn (Homo sapiens, UniProt P06241)"}, "[14]": {"molecular_target": "Cyclin-dependent kinase 8 (Homo sapiens, UniProt P49336)", "experiment": "Navigating the Kinome. Panel member name: CDK8"}, "[15]": {"molecular_target": "Cyclin-dependent kinase 7 (Homo sapiens, UniProt P50613)", "sequence (P50613 whole entry)": "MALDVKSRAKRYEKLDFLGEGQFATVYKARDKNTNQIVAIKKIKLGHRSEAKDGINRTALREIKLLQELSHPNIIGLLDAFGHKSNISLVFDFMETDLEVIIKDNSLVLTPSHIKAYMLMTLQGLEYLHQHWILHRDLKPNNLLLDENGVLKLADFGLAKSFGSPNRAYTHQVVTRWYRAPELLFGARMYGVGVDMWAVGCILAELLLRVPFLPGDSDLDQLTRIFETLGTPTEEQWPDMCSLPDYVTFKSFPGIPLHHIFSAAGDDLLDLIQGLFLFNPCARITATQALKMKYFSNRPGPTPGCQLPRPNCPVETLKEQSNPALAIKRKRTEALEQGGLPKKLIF"}, "[16]": {"molecular_target": "Vascular endothelial growth factor receptor 1 (Homo sapiens, UniProt P17948)"}, "[17]": {"molecular_target": "cAMP-dependent protein kinase catalytic subunit alpha (Homo sapiens, UniProt P17612)"}, "[18]": {"molecular_target": "Macrophage-stimulating protein receptor (Homo sapiens, UniProt Q04912)", "sequence (Q04912 25-304 limits assumed)": "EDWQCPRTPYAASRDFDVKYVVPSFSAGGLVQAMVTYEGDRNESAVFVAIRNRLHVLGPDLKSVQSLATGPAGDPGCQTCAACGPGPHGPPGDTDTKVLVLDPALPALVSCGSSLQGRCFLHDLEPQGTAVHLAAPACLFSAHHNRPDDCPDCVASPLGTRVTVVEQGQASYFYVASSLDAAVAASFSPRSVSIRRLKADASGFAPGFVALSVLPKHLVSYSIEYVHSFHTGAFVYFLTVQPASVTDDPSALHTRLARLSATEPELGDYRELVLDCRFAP", "sequence (Q04912 310-1400 limits assumed)": "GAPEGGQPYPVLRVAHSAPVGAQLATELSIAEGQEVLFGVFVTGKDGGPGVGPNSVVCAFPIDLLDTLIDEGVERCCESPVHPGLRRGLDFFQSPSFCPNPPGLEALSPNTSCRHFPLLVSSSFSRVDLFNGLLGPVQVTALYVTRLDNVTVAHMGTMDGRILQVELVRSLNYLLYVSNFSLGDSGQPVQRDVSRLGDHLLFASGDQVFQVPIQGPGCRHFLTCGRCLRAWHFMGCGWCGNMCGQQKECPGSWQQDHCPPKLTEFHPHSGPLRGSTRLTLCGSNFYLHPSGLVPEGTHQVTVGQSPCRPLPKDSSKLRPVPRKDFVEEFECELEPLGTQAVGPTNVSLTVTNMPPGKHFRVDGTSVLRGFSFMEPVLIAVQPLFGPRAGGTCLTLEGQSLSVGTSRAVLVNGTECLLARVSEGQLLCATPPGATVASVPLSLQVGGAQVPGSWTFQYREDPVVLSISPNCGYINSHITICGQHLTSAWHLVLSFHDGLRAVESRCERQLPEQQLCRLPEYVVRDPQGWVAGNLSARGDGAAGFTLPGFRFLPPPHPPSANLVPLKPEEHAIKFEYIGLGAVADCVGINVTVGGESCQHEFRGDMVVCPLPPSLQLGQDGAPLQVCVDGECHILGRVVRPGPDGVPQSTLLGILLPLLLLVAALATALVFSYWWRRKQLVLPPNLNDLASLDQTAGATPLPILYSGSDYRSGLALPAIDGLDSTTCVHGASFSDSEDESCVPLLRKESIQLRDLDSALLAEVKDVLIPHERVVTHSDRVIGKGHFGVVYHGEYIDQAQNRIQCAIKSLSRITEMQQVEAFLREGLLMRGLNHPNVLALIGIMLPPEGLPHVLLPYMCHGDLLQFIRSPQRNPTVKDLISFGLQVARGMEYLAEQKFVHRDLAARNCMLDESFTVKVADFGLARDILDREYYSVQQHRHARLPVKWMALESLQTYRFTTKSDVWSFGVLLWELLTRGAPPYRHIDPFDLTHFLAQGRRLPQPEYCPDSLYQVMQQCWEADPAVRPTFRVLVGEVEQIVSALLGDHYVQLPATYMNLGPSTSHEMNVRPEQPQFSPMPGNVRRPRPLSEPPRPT", "experiment": "Navigating the Kinome. Panel member name: MST1R"}, "[19]": {"molecular_target": "Macrophage colony-stimulating factor 1 receptor (Homo sapiens, UniProt P07333)"}, "[20]": {"molecular_target": "Inhibitor of nuclear factor kappa-B kinase subunit epsilon (Homo sapiens, UniProt Q14164)", "sequence (Q14164 whole entry)": "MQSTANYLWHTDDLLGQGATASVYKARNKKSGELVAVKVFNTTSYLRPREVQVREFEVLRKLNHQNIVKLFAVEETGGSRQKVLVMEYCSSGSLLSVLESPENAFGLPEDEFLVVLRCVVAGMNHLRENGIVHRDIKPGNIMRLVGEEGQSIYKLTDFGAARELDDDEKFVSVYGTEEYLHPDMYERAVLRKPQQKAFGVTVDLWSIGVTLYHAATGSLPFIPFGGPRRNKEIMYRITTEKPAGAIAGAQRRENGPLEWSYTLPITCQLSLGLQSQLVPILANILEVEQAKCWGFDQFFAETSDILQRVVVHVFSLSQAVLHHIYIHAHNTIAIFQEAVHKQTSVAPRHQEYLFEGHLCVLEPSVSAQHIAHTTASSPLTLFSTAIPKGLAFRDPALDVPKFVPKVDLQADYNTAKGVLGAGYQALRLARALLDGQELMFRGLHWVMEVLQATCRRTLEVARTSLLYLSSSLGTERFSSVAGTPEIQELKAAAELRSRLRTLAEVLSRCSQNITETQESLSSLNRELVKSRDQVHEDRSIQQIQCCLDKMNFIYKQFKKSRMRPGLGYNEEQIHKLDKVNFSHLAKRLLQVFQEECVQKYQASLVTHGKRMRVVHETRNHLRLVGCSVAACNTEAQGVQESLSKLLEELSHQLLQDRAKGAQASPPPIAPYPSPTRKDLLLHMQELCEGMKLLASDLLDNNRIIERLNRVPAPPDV", "experiment": "Navigating the Kinome. Panel member name: IKBKE"}, "[21]": {"molecular_target": "Calcium/calmodulin-dependent protein kinase type II subunit alpha (Homo sapiens, UniProt Q9UQM7)", "sequence (Q9UQM7 whole entry)": "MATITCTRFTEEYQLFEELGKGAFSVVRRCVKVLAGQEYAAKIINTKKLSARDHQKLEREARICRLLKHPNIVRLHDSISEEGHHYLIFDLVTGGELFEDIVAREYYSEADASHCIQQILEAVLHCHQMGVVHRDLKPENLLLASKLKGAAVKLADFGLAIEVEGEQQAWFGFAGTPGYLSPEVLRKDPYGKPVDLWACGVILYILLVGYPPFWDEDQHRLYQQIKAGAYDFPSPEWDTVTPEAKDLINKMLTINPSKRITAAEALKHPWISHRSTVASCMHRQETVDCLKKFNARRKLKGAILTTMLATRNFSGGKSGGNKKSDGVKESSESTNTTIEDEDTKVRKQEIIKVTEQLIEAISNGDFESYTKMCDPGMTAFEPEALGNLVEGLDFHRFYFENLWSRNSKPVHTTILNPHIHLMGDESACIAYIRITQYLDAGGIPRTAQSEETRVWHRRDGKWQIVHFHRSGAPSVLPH", "experiment": "Navigating the Kinome. Panel member name: CAMK2A"}, "Activin receptor type-1": {"molecular_target": "Activin receptor type-1 (Homo sapiens, UniProt Q04771)", "experiment": "Navigating the Kinome. Panel member name: ACVR1"}, "LIM domain kinase 1": {"molecular_target": "LIM domain kinase 1 (Homo sapiens, UniProt P53667)", "experiment": "Navigating the Kinome. Panel member name: LIMK1"}, "[22]": {"molecular_target": "Serine/threonine-protein kinase Chk1 (Homo sapiens, UniProt O14757)"}, "[23]": {"molecular_target": "Tyrosine-protein kinase ABL1 (Homo sapiens, UniProt P00519)"}, "Aurora kinase B": {"molecular_target": "Aurora kinase B (Homo sapiens, UniProt Q96GD4)"}}, "note": "Activity calls are given as the source filed them.", "data": [{"smiles": "CCCOc1cccc(C(C)NC(=O)c2ccc(-c3ccncc3F)cc2)c1", "note": "(stereo not given)", "values": [{"measurement": "Ki", "setting": "[1]", "result": "> 3.98 µM (inactive)"}, {"measurement": "Ki", "setting": "[2]", "result": "> 2.51 µM (inactive)"}, {"measurement": "Ki", "setting": "[3]", "result": "> 3.16 µM (inactive)"}, {"measurement": "Ki", "setting": "[4]", "result": "> 6.31 µM (inactive)"}, {"measurement": "Ki", "setting": "[5]", "result": "> 6.31 µM (inactive)"}, {"measurement": "Ki", "setting": "[6]", "result": "> 5.01 µM (inactive)"}, {"measurement": "Ki", "setting": "[7]", "result": "> 3.98 µM (inactive)"}, {"measurement": "Ki", "setting": "[8]", "result": "> 3.98 µM (inactive)"}, {"measurement": "Ki", "setting": "[9]", "result": "> 2.51 µM (inactive)"}, {"measurement": "Ki", "setting": "[10]", "result": "> 2.51 µM (inactive)"}, {"measurement": "Ki", "setting": "[11]", "result": "> 2.51 µM (inactive)"}, {"measurement": "Ki", "setting": "Focal adhesion kinase 1", "result": "> 6.31 µM (inactive)"}, {"measurement": "Ki", "setting": "[12]", "result": "> 2.51 µM (inactive)"}, {"measurement": "Ki", "setting": "[13]", "result": "> 6.31 µM (inactive)"}, {"measurement": "Ki", "setting": "[14]", "result": "> 3.98 µM (inactive)"}, {"measurement": "Ki", "setting": "[15]", "result": "> 3.98 µM (inactive)"}, {"measurement": "Ki", "setting": "[16]", "result": "> 3.98 µM (inactive)"}, {"measurement": "Ki", "setting": "[17]", "result": "1 µM (active)"}, {"measurement": "Ki", "setting": "[18]", "result": "> 3.98 µM (inactive)"}, {"measurement": "Ki", "setting": "[19]", "result": "> 2.51 µM (inactive)"}, {"measurement": "Ki", "setting": "[20]", "result": "> 3.16 µM (inactive)"}, {"measurement": "Ki", "setting": "[21]", "result": "> 7.94 µM (inactive)"}]}, {"smiles": "COc1cccc(C(C)NC(=O)c2cnc(-c3ccncc3)nc2)c1", "note": "(stereo not given)", "values": [{"measurement": "Ki", "setting": "[2]", "result": "> 2.51 µM (inactive)"}, {"measurement": "Ki", "setting": "[3]", "result": "> 3.16 µM (inactive)"}, {"measurement": "Ki", "setting": "Activin receptor type-1", "result": "> 3.98 µM (inactive)"}, {"measurement": "Ki", "setting": "[5]", "result": "> 6.31 µM (inactive)"}, {"measurement": "Ki", "setting": "[6]", "result": "> 5.01 µM (inactive)"}, {"measurement": "Ki", "setting": "[7]", "result": "> 3.98 µM (inactive)"}, {"measurement": "Ki", "setting": "[8]", "result": "> 3.98 µM (inactive)"}, {"measurement": "Ki", "setting": "LIM domain kinase 1", "result": "> 3.16 µM (inactive)"}, {"measurement": "Ki", "setting": "[9]", "result": "> 2.51 µM (inactive)"}, {"measurement": "Ki", "setting": "[22]", "result": "> 3.16 µM (inactive)"}, {"measurement": "Ki", "setting": "[23]", "result": "> 3.98 µM (inactive)"}, {"measurement": "Ki", "setting": "[11]", "result": "> 2.51 µM (inactive)"}, {"measurement": "Ki", "setting": "[12]", "result": "> 2.51 µM (inactive)"}, {"measurement": "Ki", "setting": "Aurora kinase B", "result": "> 3.98 µM (inactive)"}, {"measurement": "Ki", "setting": "[13]", "result": "> 6.31 µM (inactive)"}, {"measurement": "Ki", "setting": "[14]", "result": "> 3.98 µM (inactive)"}, {"measurement": "Ki", "setting": "[15]", "result": "> 3.98 µM (inactive)"}, {"measurement": "Ki", "setting": "[16]", "result": "> 3.98 µM (inactive)"}, {"measurement": "Ki", "setting": "[17]", "result": "0.126 µM (active)"}, {"measurement": "Ki", "setting": "[18]", "result": "0.398 µM (active)"}, {"measurement": "Ki", "setting": "[19]", "result": "> 2.51 µM (inactive)"}, {"measurement": "Ki", "setting": "[20]", "result": "> 3.16 µM (inactive)"}, {"measurement": "Ki", "setting": "[21]", "result": "> 7.94 µM (inactive)"}]}]}
